In ChEMBL document CHEMBL1201862, “PubChem BioAssay data set” (2004) one finds IC50 and EC50 data, which are given here for 1 compound.

Active and inactive are the calls of the source.

Experiment [1] concerns the target Polyadenylate-binding protein 1 (Homo sapiens, UniProt P11940). The experiment can be described thus: MLLE domain peptide-binding blockers, IC50 – biochemical, fluorescence polarization, FITC-PAM2 peptide, dose response (AID 602259). Particulars: read-out: IC50_Mean. Type of experiment: functional. For orientation: Fluorescence polarisation rises when a labelled molecule tumbles more slowly, as on binding a larger partner.

Experiment [2] addresses T1, RNA-binding protein pos-1 (Caenorhabditis elegans, UniProt G5EF15).
T1 sequence (G5EF15 whole entry): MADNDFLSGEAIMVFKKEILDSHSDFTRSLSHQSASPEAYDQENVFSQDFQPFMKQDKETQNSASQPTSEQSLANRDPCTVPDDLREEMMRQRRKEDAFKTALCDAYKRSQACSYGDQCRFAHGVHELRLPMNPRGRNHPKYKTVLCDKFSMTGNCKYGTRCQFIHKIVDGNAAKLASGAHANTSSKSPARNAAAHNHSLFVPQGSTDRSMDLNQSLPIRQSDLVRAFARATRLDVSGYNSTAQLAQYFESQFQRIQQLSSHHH
The experiment in a line: disruptors of C. elegans POS-1 RNA interaction – biochemical, fluorescence polarization, dose response (AID 1964).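 Also: purified POS-1 fused to maltose binding protein made in E. coli; potency of compounds blocking POS-1 binding to fluorescent RNA.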

Sequence of Polyadenylate-binding protein 1 (P11940 whole entry, the tested form may be a part): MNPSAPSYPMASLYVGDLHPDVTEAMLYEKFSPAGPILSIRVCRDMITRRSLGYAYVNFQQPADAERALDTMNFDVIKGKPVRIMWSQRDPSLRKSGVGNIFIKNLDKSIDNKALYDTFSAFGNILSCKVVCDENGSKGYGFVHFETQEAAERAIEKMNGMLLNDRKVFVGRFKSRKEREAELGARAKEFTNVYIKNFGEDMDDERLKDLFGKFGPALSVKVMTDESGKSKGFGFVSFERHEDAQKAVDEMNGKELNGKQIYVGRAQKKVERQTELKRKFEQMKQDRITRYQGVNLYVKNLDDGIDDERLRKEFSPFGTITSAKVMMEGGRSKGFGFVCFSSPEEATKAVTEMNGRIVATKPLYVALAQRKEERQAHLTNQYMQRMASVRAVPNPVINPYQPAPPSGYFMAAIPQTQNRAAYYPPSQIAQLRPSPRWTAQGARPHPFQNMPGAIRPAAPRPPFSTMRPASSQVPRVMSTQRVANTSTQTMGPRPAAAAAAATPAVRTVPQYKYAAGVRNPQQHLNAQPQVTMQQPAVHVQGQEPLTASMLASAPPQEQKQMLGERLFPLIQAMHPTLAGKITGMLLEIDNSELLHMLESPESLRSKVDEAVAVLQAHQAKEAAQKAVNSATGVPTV

In general, EC50 refers to the midpoint of the concentration-response curve. With `O=C(O)c1ccc2c(c1)[C@@H]1C=CC[C@@H]1[C@H](c1ccccn1)N2`, in experiment [1], the IC50 is 53.3 µM (inactive). In addition, in experiment [2], the EC50 is 4.61 µM (inconclusive).
